Reference: ChEMBL document CHEMBL1201861, “Genomics of Drug Sensitity in Cancer screening data, Wellcome Trust Sanger Institute”
“And” between values parts separate entries of the source, which are not always exact repeats. Identical values can stand only once.

Experiments:
Assay in all cases: cells
[1] = test system: LS-1034; type: functional, cell-based, Homo sapiens
Description: SANGER: Inhibition of human LS-1034 cell growth in a cell viability assay.

[2] = test system: SCC-9; type: functional, cell-based, Homo sapiens;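 further: Read-out is a cell viability assay, with values giving inhibition of cell growth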
Description: SANGER: Inhibition of human SCC-9 cell growth in a cell viability assay.

[3] = test system: BEN; type: functional, cell-based, Homo sapiens; settings: ben;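 further: growth inhibition of the BEN cell line, read out with a cell viability assay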
Description: SANGER: Inhibition of human BEN cell growth in a cell viability assay.

[4] = test system: MOLT-16; type: functional, cell-based; settings: Homo sapiens;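 further: growth inhibition of human MOLT-16 cells, read out with a cell viability assay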
Description: SANGER: Inhibition of human MOLT-16 cell growth in a cell viability assay.

[5] = test system: NCI-H28; type: functional, cell-based, Homo sapiens; settings: nci-h28;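 further: growth inhibition of human NCI-H28 cells, read out as cell viability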
Description: SANGER: Inhibition of human NCI-H28 cell growth in a cell viability assay.

[6] = test system: G-402; type: functional, cell-based, Homo sapiens; settings: g-402
Description: SANGER: Inhibition of human G-402 cell growth in a cell viability assay.

[7] = test system: RPMI-2650; type: functional, cell-based, Homo sapiens
Description: SANGER: Inhibition of human RPMI-2650 cell growth in a cell viability assay.

[8] = test system: RVH-421; type: functional, cell-based, Homo sapiens; settings: rvh-421
Description: SANGER: Inhibition of human RVH-421 cell growth in a cell viability assay.

[9] = test system: BB65-RCC; type: functional, cell-based, Homo sapiens;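 further: growth inhibition of the cell line, measured with a cell viability assay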
Description: SANGER: Inhibition of human BB65-RCC cell growth in a cell viability assay.

[10] = test system: RERF-LC-MS; type: functional, cell-based, Homo sapiens; settings: rerf-lc-ms;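 further: growth inhibition of human RERF-LC-MS cells, read out by a cell viability assay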
Description: SANGER: Inhibition of human RERF-LC-MS cell growth in a cell viability assay.

[11] = test system: SNU-449; type: functional, cell-based, Homo sapiens
Description: SANGER: Inhibition of human SNU-449 cell growth in a cell viability assay.

[12] = test system: IA-LM; type: functional, cell-based, Homo sapiens;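 further: cell viability assay measuring growth inhibition of human IA-LM cells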
Description: SANGER: Inhibition of human IA-LM cell growth in a cell viability assay.

[13] = test system: C8166; type: functional, cell-based; settings: Homo sapiens;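 further: growth inhibition of human C8166 cells measured by a cell viability assay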
Description: SANGER: Inhibition of human C8166 cell growth in a cell viability assay.

[14] = test system: SK-LMS-1; type: functional, cell-based, Homo sapiens;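 further: growth inhibition of human SK-LMS-1 cells, read out with a cell viability assay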
Description: SANGER: Inhibition of human SK-LMS-1 cell growth in a cell viability assay.

[15] = test system: RPMI-7951; type: functional, cell-based, Homo sapiens
Description: SANGER: Inhibition of human RPMI-7951 cell growth in a cell viability assay.

[16] = test system: U-251; type: functional, cell-based, Homo sapiens; settings: u-251;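 further: growth inhibition of human U-251 cells, read out through a cell viability assay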
Description: SANGER: Inhibition of human U251 cell growth in a cell viability assay.

[17] = test system: HSC-2; type: functional, cell-based, Homo sapiens;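 further: growth inhibition of human HSC-2 cells, read out by a cell viability assay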
Description: SANGER: Inhibition of human HSC-2 cell growth in a cell viability assay.

[18] = test system: A-427; type: functional, cell-based, Homo sapiens; settings: a-427;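 further: growth inhibition of human A-427 cells, read out by a cell viability assay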
Description: SANGER: Inhibition of human A427 cell growth in a cell viability assay.

[19] = test system: NCI-H1155; type: functional, cell-based; settings: Homo sapiens;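 further: cell growth inhibition measured by a viability assay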
Description: SANGER: Inhibition of human NCI-H1155 cell growth in a cell viability assay.

[20] = test system: MDA-MB-175-VII; type: functional, cell-based, Homo sapiens; settings: mda-mb-175-vii
[21] = test system: Mo; type: functional, cell-based; settings: Homo sapiens
Description: SANGER: Inhibition of human Mo-T cell growth in a cell viability assay.

[22] = test system: HEL; type: functional, cell-based, Homo sapiens;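 further: growth inhibition of HEL cells, read out with a cell viability assay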
Description: SANGER: Inhibition of human HEL cell growth in a cell viability assay.

[23] = test system: HCC2218; type: functional, cell-based; settings: Homo sapiens;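 further: cell viability assay read-out, with IC50 given as the concentration that inhibits growth of the cell line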
Description: SANGER: Inhibition of human HCC2218 cell growth in a cell viability assay.

[24] = test system: RPMI-8226; type: functional, cell-based; settings: Homo sapiens
Description: SANGER: Inhibition of human RPMI-8226 cell growth in a cell viability assay.

[25] = test system: SBC-5; type: functional, cell-based, Homo sapiens;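 further: cell viability assay read-out, IC50 is the concentration that inhibits growth of the cells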
Description: SANGER: Inhibition of human SBC-5 cell growth in a cell viability assay.

[26] = test system: TE-5; type: functional, cell-based, Homo sapiens;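 further: inhibition of cell growth, read out by a cell viability assay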
Description: SANGER: Inhibition of human TE-5 cell growth in a cell viability assay.

[27] = test system: HT-1080; type: functional, cell-based, Homo sapiens; settings: ht-1080
Description: SANGER: Inhibition of human HT-1080 cell growth in a cell viability assay.

[28] = test system: SCC-4; type: functional, cell-based, Homo sapiens; settings: scc-4;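 further: growth inhibition of human SCC-4 cells, read out as cell viability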
Description: SANGER: Inhibition of human SCC-4 cell growth in a cell viability assay.

[29] = test system: HDLM-2; type: functional, cell-based; settings: Homo sapiens;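 further: cell viability assay measuring suppression of HDLM-2 proliferation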
Description: SANGER: Inhibition of human HDLM-2 cell growth in a cell viability assay.

[30] = test system: NCI-H1755; type: functional, cell-based, Homo sapiens;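 further: cell viability readout used to measure growth inhibition of NCI-H1755 cells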
Description: SANGER: Inhibition of human NCI-H1755 cell growth in a cell viability assay.

[31] = test system: NCI-H720; type: functional, cell-based; settings: Homo sapiens;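 further: growth inhibition of human NCI-H720 cells determined by a cell viability assay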
Description: SANGER: Inhibition of human NCI-H720 cell growth in a cell viability assay.

[32] = test system: SK-MEL-1; type: functional, cell-based; settings: Homo sapiens;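 further: growth inhibition of human SK-MEL-1 cells, read out by a cell viability assay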
Description: SANGER: Inhibition of human SK-MEL-1 cell growth in a cell viability assay.

[33] = test system: DU-145; type: functional, cell-based, Homo sapiens; settings: du-145
Description: SANGER: Inhibition of human DU-145 cell growth in a cell viability assay.

[34] = test system: CHL-1; type: functional, cell-based, Homo sapiens;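 further: cell growth inhibition, read out with a cell viability assay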
Description: SANGER: Inhibition of human CHL-1 cell growth in a cell viability assay.

[35] = test system: NCI-H1563; type: functional, cell-based, Homo sapiens;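 further: growth inhibition of human NCI-H1563 cells, read out with a cell viability assay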
Description: SANGER: Inhibition of human NCI-H1563 cell growth in a cell viability assay.

[36] = test system: A204; type: functional, cell-based, Homo sapiens;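 further: growth inhibition of human A204 cells, read out with a cell viability assay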
Description: SANGER: Inhibition of human A204 cell growth in a cell viability assay.

[37] = test system: K5; type: functional, cell-based, Homo sapiens
[38] = test system: PA-1; type: functional, cell-based, Homo sapiens; settings: pa-1;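 further: IC50 for suppression of PA-1 cell proliferation, determined with a cell viability read-out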
Description: SANGER: Inhibition of human PA-1 cell growth in a cell viability assay.

[39] = test system: SF-126; type: functional, cell-based, Homo sapiens;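 further: growth inhibition of human SF126 cells, read out with a cell viability assay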
Description: SANGER: Inhibition of human SF126 cell growth in a cell viability assay.

[40] = test system: MOLT-4; type: functional, cell-based; settings: Homo sapiens;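 further: growth inhibition of MOLT-4 cells, determined with a cell viability readout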
Description: SANGER: Inhibition of human MOLT-4 cell growth in a cell viability assay.

[41] = test system: HCE-T; type: functional, cell-based, Homo sapiens;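 further: cell viability assay read-out, reporting inhibition of HCE-T cell growth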
Description: SANGER: Inhibition of human HCE-T cell growth in a cell viability assay.

[42] = test system: OVCAR-5; type: functional, cell-based, Homo sapiens; settings: ovcar-5;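 further: growth inhibition of human OVCAR-5 cells, read out with a cell viability assay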
Description: SANGER: Inhibition of human OVCAR-5 cell growth in a cell viability assay.

[43] = test system: COLO-684; type: functional, cell-based; settings: Homo sapiens
Description: SANGER: Inhibition of human COLO-684 cell growth in a cell viability assay.

[44] = test system: PC-3; type: functional, cell-based, Homo sapiens; settings: pc-3;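 further: cell viability assay measuring growth inhibition of PC-3 cells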
Description: SANGER: Inhibition of human PC-3 cell growth in a cell viability assay.

[45] = test system: SW 962; type: functional, cell-based, Homo sapiens;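 further: growth inhibition of human SW962 cells, read out by a cell viability assay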
Description: SANGER: Inhibition of human SW962 cell growth in a cell viability assay.

[46] = test system: COR-L88; type: functional, cell-based; settings: Homo sapiens;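 further: growth inhibition of COR-L88 cells, read out with a cell viability assay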
Description: SANGER: Inhibition of human COR-L88 cell growth in a cell viability assay.

[47] = test system: GAMG; type: functional, cell-based, Homo sapiens; settings: gamg;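 further: cell growth inhibition measured by a viability assay in the GAMG human cell line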
Description: SANGER: Inhibition of human GAMG cell growth in a cell viability assay.

[48] = test system: Becker; type: functional, cell-based, Homo sapiens;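 further: growth inhibition of Becker cells, read out with a cell viability assay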
Description: SANGER: Inhibition of human Becker cell growth in a cell viability assay.

[49] = test system: HD-MY-Z; type: functional, cell-based, Homo sapiens;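 further: growth inhibition of HD-MY-Z cells, read out with a cell viability assay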
Description: SANGER: Inhibition of human HD-MY-Z cell growth in a cell viability assay.

[50] = test system: HCC1395; type: functional, cell-based, Homo sapiens;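 further: growth inhibition of HCC1395 cells, read out by a cell viability assay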
Description: SANGER: Inhibition of human HCC1395 cell growth in a cell viability assay.

[51] = test system: ABC-1; type: functional, cell-based, Homo sapiens; settings: abc-1;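 further: growth inhibition of human ABC-1 cells, read out by a cell viability assay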
Description: SANGER: Inhibition of human ABC-1 cell growth in a cell viability assay.

Cc1cc([C@@H](C)Nc2ccccc2C(=O)O)c2nc(N3CCOCC3)cc(=O)n2c1 [AZD-6482]
IC50 ([1]; Homo sapiens, LS-1034): > 5120 nM | IC50 ([1]; ls-1034): > 5120 nM | IC50 ([2]; Homo sapiens, SCC-9): 858 nM | IC50 ([2]; scc-9): 904 nM | IC50 [3]: > 5120 nM | IC50 [4]: 4330 nM | IC50 [5]: > 5120 nM | IC50 [6]: 3240 nM and > 5120 nM | IC50 ([7]; Homo sapiens, RPMI-2650): > 5120 nM | IC50 ([7]; rpmi-2650): > 5120 nM | IC50 [8]: > 5120 nM | IC50 ([9]; Homo sapiens, BB65-RCC): > 5120 nM | IC50 ([9]; bb65-rcc): > 5120 nM | IC50 [10]: > 5120 nM and 4340 nM | IC50 ([11]; Homo sapiens, SNU-449): > 5120 nM | IC50 ([11]; snu-449): > 5120 nM | IC50 ([12]; ia-lm): > 5120 nM | IC50 [13]: > 5120 nM | IC50 ([14]; Homo sapiens, SK-LMS-1): 3070 nM | IC50 ([14]; sk-lms-1): 4620 nM | IC50 ([15]; Homo sapiens, RPMI-7951): > 5120 nM | IC50 ([15]; rpmi-7951): > 5120 nM | IC50 [16]: > 5120 nM | IC50 ([17]; Homo sapiens, HSC-2): 1760 nM | IC50 ([17]; hsc-2): 1140 nM | IC50 [18]: 995 nM and > 5120 nM | IC50 [19]: > 5120 nM | IC50 [20]: > 5120 nM | IC50 [21]: > 5120 nM | IC50 ([22]; hel): > 5120 nM | IC50 [23]: > 5120 nM | IC50 [24]: > 5120 nM | IC50 ([25]; Homo sapiens, SBC-5): > 5120 nM | IC50 ([25]; sbc-5): > 5120 nM | IC50 ([26]; Homo sapiens, TE-5): > 5120 nM | IC50 ([26]; te-5): > 5120 nM | IC50 [27]: > 5120 nM | IC50 [28]: > 5120 nM | IC50 [29]: > 5120 nM | IC50 ([30]; Homo sapiens, NCI-H1755): 3270 nM | IC50 ([30]; nci-h1755): 3310 nM | IC50 [31]: > 5120 nM | IC50 [32]: > 5120 nM | IC50 [33]: > 5120 nM and 1370 nM | IC50 ([34]; Homo sapiens, CHL-1): > 5120 nM | IC50 ([34]; chl-1): 4720 nM | IC50 ([35]; Homo sapiens, NCI-H1563): > 5120 nM | IC50 ([35]; nci-h1563): > 5120 nM | IC50 ([36]; Homo sapiens, A204): > 5120 nM | IC50 ([36]; a204): 2770 nM | IC50 ([37]; Homo sapiens, K5): > 5120 nM | IC50 ([37]; k5): > 5120 nM | IC50 [38]: > 5120 nM and 2430 nM | IC50 ([39]; sf-126): 4460 nM and > 5120 nM | IC50 [40]: > 5120 nM | IC50 ([41]; hce-t): > 5120 nM and 2090 nM | IC50 [42]: > 5120 nM | IC50 [43]: 2200 nM | IC50 [44]: > 5120 nM | IC50 ([45]; sw 962): > 5120 nM and 1500 nM | IC50 [46]: > 5120 nM | IC50 [47]: 4430 nM and 1010 nM | IC50 ([48]; becker): 1360 nM and 4540 nM | IC50 ([49]; hd-my-z): > 5120 nM | IC50 ([50]; Homo sapiens, HCC1395): > 5120 nM | IC50 ([50]; hcc1395): > 5120 nM | IC50 [51]: > 5120 nM

CCC(=O)N1CCN(c2ccc(-n3c(=O)ccc4cnc5ccc(-c6cnc7ccccc7c6)cc5c43)cc2C(F)(F)F)CC1 [TORIN1]
IC50 ([1]; Homo sapiens, LS-1034): 364 nM | IC50 [4]: 16.2 nM | IC50 ([9]; Homo sapiens, BB65-RCC): 36.9 nM | IC50 ([12]; Homo sapiens, IA-LM): 29.2 nM | IC50 [13]: > 1200 nM | IC50 ([14]; Homo sapiens, SK-LMS-1): 14.1 nM | IC50 [19]: 654 nM | IC50 [21]: > 1200 nM | IC50 ([22]; Homo sapiens, HEL): 16.4 nM | IC50 [23]: 472 nM | IC50 [24]: 6.51 nM | IC50 ([26]; Homo sapiens, TE-5): 38.5 nM | IC50 [29]: > 1200 nM | IC50 [31]: 550 nM | IC50 [32]: > 1200 nM | IC50 ([37]; Homo sapiens, K5): 64 nM | IC50 ([39]; Homo sapiens, SF-126): 43.6 nM | IC50 [40]: 66.1 nM | IC50 ([41]; Homo sapiens, HCE-T): 109 nM | IC50 [43]: 45.6 nM | IC50 ([45]; Homo sapiens, SW 962): 57.6 nM | IC50 [46]: 1110 nM | IC50 ([48]; Homo sapiens, Becker): 64.2 nM | IC50 ([49]; Homo sapiens, HD-MY-Z): 24.3 nM

CN1CCN(CCOc2cc(OC3CCOCC3)c3c(Nc4c(Cl)ccc5c4OCO5)ncnc3c2)CC1 [SARACATINIB]
IC50 ([1]; Homo sapiens, LS-1034): > 2000 nM | IC50 [4]: > 2000 nM | IC50 ([9]; Homo sapiens, BB65-RCC): > 2000 nM | IC50 ([12]; Homo sapiens, IA-LM): > 2000 nM | IC50 [13]: > 2000 nM | IC50 ([14]; Homo sapiens, SK-LMS-1): > 2000 nM | IC50 [19]: > 2000 nM | IC50 [21]: > 2000 nM | IC50 ([22]; Homo sapiens, HEL): > 2000 nM | IC50 [23]: > 2000 nM | IC50 [24]: > 2000 nM | IC50 ([26]; Homo sapiens, TE-5): > 2000 nM | IC50 [29]: > 2000 nM | IC50 [31]: > 2000 nM | IC50 [32]: > 2000 nM | IC50 ([37]; Homo sapiens, K5): > 2000 nM | IC50 ([39]; Homo sapiens, SF-126): > 2000 nM | IC50 [40]: > 2000 nM | IC50 ([41]; Homo sapiens, HCE-T): > 2000 nM | IC50 [43]: > 2000 nM | IC50 ([45]; Homo sapiens, SW 962): > 2000 nM | IC50 [46]: > 2000 nM | IC50 ([48]; Homo sapiens, Becker): > 2000 nM | IC50 ([49]; Homo sapiens, HD-MY-Z): > 2000 nM
